According to patent US11767307B2, “Litter for promoting pet's in-litter elimination” (SPECIALITES PET FOOD, priority 2018, dated 2023):

How the values were obtained:
cat elimination behavior = test: Two-litter-box test of cat elimination behavior (deposits weight in litter); assay type: in vivo, cats; details: measured on non-soiled litters the first day of use
Description: (§1) Twenty cats in 5 living rooms (4 cats per room) were involved in the study. The study lasted 4 days and two litter boxes containing two different products, i.e. a control cat litter (Litter 1, non-clumping clay) and an experimental cat litter (Litter 2) sprayed with 0.1% of composition A according to Example 1, were presented to the cats.
Diet was controlled for each test by measuring food intake. The temperature of the rooms was controlled. In each room, an equal proportion of males/females was respected.
as §1, with “study. Two” for “study. The study lasted 4 days and two”, “(Litter 3,” for “(Litter 1,”, “(Litter 4)” for “(Litter 2)”, “composition B” for “composition A”

cats = details: 21 commercial cat attractants tested; cited from earlier work

| Compound | in-litter cat elimination promoting (attractant) effect (cat elimination behavior) | preference by cats for urine elimination versus control (cats) |
| --- | --- | --- |
| CC1(C)OCC(CO)O1 (centres unmarked) [composition A, 2,2-dimethyl-1,3-dioxolane-4-methanol] | in-litter cat elimination promoting (or attractant) effect | – |
| CC(C)(CCO)SC[C@H](N)C(=O)O [L-Felinine] | – | significantly preferred |
